US5047404A, “Chemical compounds” (Smith Kline & French Laboratories, Ltd., priority 1988, dated 1991)
pIC50: −log10 of the molar value.

How the values were obtained:
[1] = tested on: ovalbumen-induced bronchoconstrictor response; experiment: Anti-allergic activity: ovalbumen-induced bronchoconstrictor response in sensitised guinea-pigs; assay type: in vivo, guinea-pigs (male Duncan Hartley); conditions: dose 28 μmol/kg i.v. bolus, ovalbumen 1 mg.kg^-1 i.v. challenge 30 min after drug
Procedure: Male Duncan Hartley guinea-pigs (250-300 g) were sensitised to ovalbumen by i.p. injection of 2 ml of 50 mg.ml^-1 i.p. and 0.2 ml s.c. Three weeks later they were anaesthetised with 60 mg.kg^-1 sodium pentabarbitone. The trachea was cannulated and the animal respired at a rate of 40 breaths per minute and at an initial tracheal inflation pressure of 16 mmHg. Tracheal inflation pressure was measured by a transducer connected to a side arm of the respiration circuit. The carotid artery was cannulated for the measurement of blood pressure and the signal was used to trigger an instantaneous rate meter. A jugular vein was cannulated for the administration of drug and allergen. After surgery the animals were allowed to stabilise and the drug was administered i.v. as a bolus. Following this, ovalbumen 1 mg.kg^-1 was injected i.v. as the antigen challenge either 2, 15 or 30 minutes following drug treatment and the peak bronchoconstrictor response recorded. For the control group ovalbumen only was given. One ovalbumen challenge per guinea-pig was used and n=6 for each time point. The percentage increase in tracheal inflation pressure was calculated. The following results indicating an anti-allergic activity were obtained.

[2] = target: calmodulin insensitive cyclic GMP phosphodiesterase (Homo sapiens, UniProt O76074); experiment: Phosphodiesterase activity: inhibition of calmodulin insensitive cyclic GMP phosphodiesterase; assay type: biochemical; conditions: procedure of European Patent Application No. 293063; read-out: IC50 (concentration of inhibitor required for 50% inhibition of enzyme activity)
[3] = tested on: hindquarter vascular resistance; experiment: Vasodilatation in vivo: hindquarter blood flow, perfused hind quarters; parameters: species or system rats (male Wistar); conditions: anaesthetised rats; bolus i.v., 10 μmol/kg
Procedure: Male Wistar rats (300 g) were anaesthetised with a sodium 5-ethyl-5-(I-methylpropyl)-2-thiobarbiturate/sodium pentobarbitone mixture i.p. (62.5 and 22.5 mg/kg respectively). The trachea was cannulated and the rats breathed spontaneously air enriched with O2 (5 ml/min). Blood pressure was recorded from a carotid artery and a jugular vein was cannulated for the administration of compounds. The temperature of the animal was maintained at 37° C. by the use of an electric blanket. […] The perfusion circuit was primed with 5% bovine serum albumin dissolved in 0.9% sodium chloride solution, pH adjusted to 7.4. Initially the pump rate was set between 10 and 15 ml/min to match the hind quarter perfusion pressure to that of the systemic circulation. Once set, the pressure remained unaltered for the rest of the experiment. A change in the speed of the pump (equivalent to hindquarter blood flow) was used to assess the changes in hindquarter vascular resistance.

| Compound | pIC50 [2] | other results |
| --- | --- | --- |
| CCCOc1ccccc1-c1nc2ncccc2c(=O)[nH]1 [Example 1, 2-(2-Propoxyphenyl)pyrido[2,3-d]pyrimid-4(3H)-one] | – | % Inhibition of Control Bronchoconstrictor Response 30 min after drug administration [1]: 9% |
| CCCOc1ccccc1-c1nc2[nH]c(=O)c(=O)[nH]c2c(=O)[nH]1 [Example 7, 2-(2-Propoxyphenyl)pteridin-4,6,7(3H,5H,8H)-trione] | 4.94 to 6.26 | – |
| CCCOc1ccccc1-c1nc2nc(SC)nnc2c(=O)[nH]1 [Example 12, 3-Methylthio-8-oxo 6-(2-propoxyphenyl)-7,8-dihydropyrimido[4,5-e][1,2,4]triazine] | – | increase in hindquarter blood flow [3]: 38% |

Now from value to compound, other results behind:

| pIC50 [2] | Compound | other results |
| --- | --- | --- |
| 4.94 to 6.26 | CCCOc1ccccc1-c1nc2ncc(=O)[nH]c2c(=O)[nH]1 [Example 6, 2-(2-Propoxyphenyl)pteridin-4,6(3H,5H)-dione] | – |
| 4.94 to 6.26 | CCCOc1ccccc1-c1nc2nnc(NC)nc2c(=O)[nH]1 [Example 10, 3-Methylamino-5,6-dihydro-5-oxo-7-(2-propoxyphenyl)pyrimido[5,4-e][1,2,4]triazine] | – |
| 4.94 to 6.26 | CCCOc1ccccc1-c1nc2nnc(OC)nc2c(=O)[nH]1 [Example 11, 3-Methoxy-5,6-dihydro-5-oxo-7-(2-propoxyphenyl)pyrimido[5,4-e][1,2,4]triazine] | – |
